O=C(O)[C@@H]1Cc2ccccc2N1
Conditions	solubility (mole fraction)
in ethanol, 283.15 K	0.00168
in ethanol, 288.15 K	0.00216
in ethanol, 292.85 K	0.00284
in ethanol, 298.25 K	0.00358
in ethanol, 303.05 K	0.00454
in ethanol, 308.15 K	0.00572
in ethanol, 313.45 K	0.00721
in ethanol, 318.55 K	0.00895
in ethanol, 323.35 K	0.0107
in ethanol, 328.75 K	0.0138
in ethanol, 333.25 K	0.0159
in ethanol, 338.25 K	0.0186
in ethanol, 343.15 K	0.022
in isopropanol, 283.15 K	0.000941
in isopropanol, 288.15 K	0.0015
in isopropanol, 293.25 K	0.00197
in isopropanol, 298.15 K	0.0028
in isopropanol, 303.35 K	0.00387
in isopropanol, 307.95 K	0.00504
in isopropanol, 313.05 K	0.00685
in isopropanol, 318.65 K	0.0093
in isopropanol, 323.55 K	0.0109
in isopropanol, 328.35 K	0.0144
in isopropanol, 333.15 K	0.0169
in isopropanol, 338.35 K	0.0202
in isopropanol, 343.05 K	0.0241
in isopropanol, 348.75 K	0.0299
in isopropanol, 353.15 K	0.0369
in methanol, 283.15 K	0.00436
in methanol, 288.25 K	0.00543
in methanol, 292.75 K	0.00647
in methanol, 298.15 K	0.00809
in methanol, 302.95 K	0.0103
in methanol, 308.05 K	0.0122
in methanol, 313.15 K	0.0145
in methanol, 318.25 K	0.0166
in methanol, 323.15 K	0.019
in methanol, 328.55 K	0.0201
in methanol, 333.15 K	0.026
in n-butanol, 283.15 K	0.00228
in n-butanol, 288.35 K	0.00316
in n-butanol, 293.05 K	0.00395
in n-butanol, 298.25 K	0.00481
in n-butanol, 303.55 K	0.00592
in n-butanol, 308.05 K	0.00708
in n-butanol, 313.65 K	0.0083
in n-butanol, 318.45 K	0.0102
in n-butanol, 323.25 K	0.0111
in n-butanol, 328.05 K	0.0131
in n-butanol, 332.95 K	0.0144
in n-butanol, 338.15 K	0.0162
in n-butanol, 343.55 K	0.0186
in n-butanol, 348.95 K	0.0217
in n-butanol, 353.05 K	0.0237
in n-butanol, 358.15 K	0.0268
in n-propanol, 283.15 K	0.000819
in n-propanol, 288.25 K	0.00105
in n-propanol, 293.05 K	0.00153
in n-propanol, 298.35 K	0.00211
in n-propanol, 303.15 K	0.00284
in n-propanol, 308.45 K	0.0039
in n-propanol, 313.15 K	0.00502
in n-propanol, 318.75 K	0.00673
in n-propanol, 323.25 K	0.00835
in n-propanol, 328.15 K	0.0107
in n-propanol, 333.05 K	0.0135
in n-propanol, 338.15 K	0.0167
in n-propanol, 343.55 K	0.0214
in n-propanol, 348.65 K	0.0261
in n-propanol, 353.15 K	0.0304
in n-propanol, 358.15 K	0.0397
in water, 283.15 K	0.000308
in water, 288.35 K	0.000309
in water, 292.25 K	0.000316
in water, 297.45 K	0.000322
in water, 302.15 K	0.000335
in water, 308.55 K	0.000365
in water, 313.15 K	0.000401
in water, 318.25 K	0.00046
in water, 323.45 K	0.000547
in water, 328.65 K	0.000673
in water, 333.15 K	0.000825
in water, 338.55 K	0.00108
in water, 342.95 K	0.00138
in water, 348.75 K	0.00196
in water, 353.15 K	0.0026
in water, 358.15 K	0.00366
